# Data: patent US20240262815A1, “HETEROARYL DERIVATIVE, METHOD FOR PREPARING SAME, AND PHARMACEUTICAL COMPOSITION COMPRISING SAME AS ACTIVE INGREDIENT” (VORONOI INC., priority 2021, published 2024)
# Tested on: SK-BR-3 cancer cells
# Assay: Inhibitory activity against proliferation of SK-BR-3 cancer cells (CellTiter-Glo)
# Format: cell-based
# Settings: Homo sapiens, SK-BR-3, 120 h, ErbB2-overexpressing SK-BR-3 cells, 120 hours after treatment
# Protocol: To evaluate the inhibitory activity of a compound according to the present invention against the proliferation of ErbB2-overexpressing cancer cells, the following experiment were performed.
# 10% FBS-added McCOY'S 5A was used for SK-BR-3 cancer cells. 20% FBS-added RPMI-1640 was used for BT-474 cancer cells. Transduced Ba/F3 cells were cultured in a RPMI-1640 medium to which 1 μg/ml puromycin (Invitrogen) was added.
# 48 hours before compound treatment, each type of the SK-BR-3 and BT-474 cells were seeded at 5,000 cells/well in a white clear bottom 96 well plate (Corning). The compound was diluted in dimethyl sulfoxide (SK-BR-3: 3-fold dilution, a total of 12 concentrations, BT-474: […], a total of 12 concentrations) and injected at 1 μl to have the final concentration of 0.2 nM to 5 μM. As for measurement of live cells, 120 hours after treatment with the compound, a CellTiter-Glo luminescent cell-viability reagent (Promega) was used to store the cells at room temperature for 10 minutes, followed by measurement of luminescence using a reader (SynergyNeo, Biotek). Each test was repeated three times.
# The result values were calculated as a cell growth rate (%) compared to the control group. A graph was plotted using the GraphPad Prism version 8.3.0 program, and GI50 values were calculated.
row,SMILES,GI50 [nM]
1,"C=CC(=O)Nc1cc(Nc2cc(N3OCCC3c3cccc(-c4ccc(C)s4)c3)ncn2)c(OC)cc1N1CCN(C)CC1 (stereo not drawn) [Example 214, N-(4-methoxy-2-(4-methylpiper-azin-1-yl)-5-((6-(3-(3-(5-methyl-thiophen-2-yl)-phenyl)isoxazol-idin-2-yl)pyrim-idin-4-yl)amino)-phenyl)acrylamide]",50 to 500
2,"C=CC(=O)Nc1cc(Nc2cc(N3OCC[C@@H]3c3cccc(-c4ccccc4)c3)ncn2)c(OC)cc1N1CCN(C(C)=O)CC1 [Example 215, (R)-N-(5-((6-(3-([1,1′-biphenyl]-3-yl)isoxazolidin-2-yl)pyrimidin-4-yl)-amino)-2-(4-acetyl-piperazin-1-yl)-4-methoxyphenyl)-acrylamide]",< 50
3,"C=CC(=O)Nc1cc(Nc2cc(N3OCC[C@@H]3c3cc(F)cc(Oc4ccn(C)n4)c3)ncn2)c(OC)cc1N1CCN(C)CC1 [Example 217, (R)-N-(5-((6-(3-(3-fluoro-5-((1-methyl-1H-pyr-azol-3-yl)oxy)-phenyl)isoxazol-idin-2-yl)pyrim-idin-4-yl)amino)-4-methoxy-2-(4-methylpiperazin-1-yl)phenyl)-acrylamide]",50 to 500
4,"C=CC(=O)Nc1cc(Nc2cc(N3OCC[C@@H]3c3cc(F)cc(Oc4ccn(C)n4)c3)ncn2)c(OC)cc1N(C)CCN(C)C [Example 218, (R)-N-(2-((2-(dimethylamino)-ethyl)(methyl)-amino)-5-((6-(3-(3-fluoro-5-((1-methyl-1H-pyr-azol-3-yl)oxy)-phenyl)isoxazol-idin-2-yl)pyrim-idin-4-yl)amino)-4-methoxyphen-yl)acrylamide]",< 50
5,"C=CC(=O)Nc1cc(Nc2cc(N3OCC[C@@H]3c3cc(F)cc(Oc4cccc(F)c4)c3)ncn2)c(OC)cc1N1CCN(CC)CC1 [Example 220, (R)-N-(2-(4-ethyl-piperazin-1-yl)-5-((6-(3-(3-fluoro-5-(3-fluorophenoxy)-phenyl)isoxazol-idin-2-yl)pyrim-idin-4-yl)amino)-4-methoxyphen-yl)acrylamide]",< 50
6,"C=CC(=O)Nc1cc(Nc2cc(N3OCC[C@@H]3c3cc(F)cc(Oc4cccc(F)c4)c3)ncn2)c(OC)cc1N1CCOCC1 [Example 222, (R)-N-(5-((6-(3-(3-fluoro-5-(3-fluorophenoxy)-phenyl)isoxazol-idin-2-yl)pyrim-idin-4-yl)amino)-4-methoxy-2-morpholinophen-yl)acrylamide]",< 50
7,"C=CC(=O)Nc1cc(Nc2cc(N3OCC[C@@H]3c3cccc(Oc4cc(F)cc(F)c4)c3)ncn2)c(OC)cc1N(C)CCN(C)C [Example 226, (R)-N-(5-((6-(3-(3-(3,5-difluoro-phenoxy)phenyl)-isoxazolidin-2-yl)-pyrimidin-4-yl)-amino)-2-((2-(dimethylamino)-ethyl)(methyl)-amino)-4-methoxy-phenyl)acrylamide]",< 50
8,"C=CC(=O)Nc1cc(Nc2cc(N3OCC[C@H]3c3cccc(OCc4cccc(F)c4)c3)ncn2)c(OC)cc1N(C)CCN(C)C [Example 229, (S)-N-(2-((2-(dimethylamino)-ethyl)(methyl)-amino)-5-((6-(3-(3-((3-fluorobenz-yl)oxy)phenyl)-isoxazolidin-2-yl)-pyrimidin-4-yl)-amino)-4-methoxy-phenyl)acrylamide]",50 to 500
9,"C=CC(=O)Nc1cc(Nc2cc(N3OCC[C@@H]3c3cccc(-c4ccccc4)c3)ncn2)c(OC)cc1N1CCN(CCC)CC1 [Example 230, (R)-N-(5-((6-(3-([1,1′-biphenyl]-3-yl)isoxazolidin-2-yl)pyrimidin-4-yl)-amino)-4-methoxy-2-(4-propylpiper-azin-1-yl)phenyl)-acrylamide]",< 50
10,"C=CC(=O)Nc1cc(Nc2cc(N3OCCC3c3cccc(-c4cnn(C)c4)c3)ncn2)c(OC)cc1N1CCN(C)CC1 (stereo not drawn) [Example 232, N-(4-methoxy-5-((6-(3-(3-(1-meth-yl-1H-pyrazol-4-yl)phenyl)isoxazol-idin-2-yl)pyrim-idin-4-yl)amino)-2-(4-methylpiper-azin-1-yl)phenyl)-acrylamide]",< 50
11,"C=CC(=O)Nc1cc(Nc2cc(N3OCCC3c3cccc(-c4cnn(C)c4)c3)ncn2)c(OC)cc1N1CCC(N2CCN(C3CC3)CC2)CC1 (stereo not drawn) [Example 234, N-(2-(4-(4-cyclo-propylpiperazin-1-yl)piperidin-1-yl)-4-methoxy-5-((6-(3-(3-(1-methyl-1H-pyrazol-4-yl)-phenyl)isoxazol-idin-2-yl)pyrim-idin-4-yl)amino)-phenyl)acrylamide]",< 50
12,"C=CC(=O)Nc1cc(Nc2cc(N3OCCC3c3cccc(-c4cnc5cccnn45)c3)ncn2)c(OC)cc1N(C)CCN(C)C (stereo not drawn) [Example 235, N-(2-((2-(dimeth-ylamino)ethyl)-(methyl)amino)-5-((6-(3-(3-(imidazo[1,2-b]-pyridazin-3-yl)-phenyl)isoxazol-idin-2-yl)pyrim-idin-4-yl)amino)-4-methoxyphen-yl)acrylamide]",< 50
13,"C=CC(=O)Nc1cc(Nc2cc(N3OCCC3c3cccc(-c4cccc(C(F)(F)F)c4)c3)ncn2)c(OC)cc1N(C)CCN(C)C (stereo not drawn) [Example 236, N-(2-((2-(dimeth-ylamino)ethyl)-(methyl)amino)-4-methoxy-5-((6-(3-(3′-(trifluorometh-yl)-[1,1′-biphenyl]-3-yl)isoxazolidin-2-yl)pyrimidin-4-yl)amino)phenyl)-acrylamide]",< 50
14,C=CC(=O)Nc1cc(Nc2cc(N3OCCC3c3cccc(-c4cccc(C(F)(F)F)c4)c3)ncn2)c(OC)cc1N1CCN(C)CC1 (stereo not drawn) [Example 237],50 to 500
15,"C=CC(=O)Nc1cc(Nc2cc(N3OCCC3c3cccc(-c4nccs4)c3)ncn2)c(OC)cc1N(C)CCN(C)C (stereo not drawn) [Example 238, N-(2-((2-(dimeth-ylamino)ethyl)-(methyl)amino)-4-methoxy-5-((6-(3-(3-(thiazol-2-yl)-phenyl)isoxazol-idin-2-yl)pyrim-idin-4-yl)amino)-phenyl)acrylamide]",< 50
16,C=CC(=O)Nc1cc(Nc2cc(N3OCC[C@@H]3c3cc(F)cc(-c4cccc(N(C)C)c4)c3)ncn2)c(OC)cc1N(C)CCN(C)C [Example 239],< 50
17,"C=CC(=O)Nc1cc(Nc2cc(N3OCC[C@@H]3c3cc(F)cc(-c4ncnn4C)c3)ncn2)c(OC)cc1N(C)CCN(C)C [Example 240, (R)-N-(2-((2-(dimethylamino)-ethyl)(methyl)-amino)-5-((6-(3-(3-fluoro-5-(1-methyl-1H-1,2,4-triazol-5-yl)phen-yl)-isoxazolidin-2-yl)pyrimidin-4-yl)-amino)-4-methoxy-phen-yl)acrylamide]",< 50
18,"C=CC(=O)Nc1cc(Nc2cc(N3OCC[C@H]3c3cccc(-c4cccc(F)c4)c3)ncn2)c(OC)cc1N1CCN(C)CC1 [Example 241, (S)-N-(5-((6-(3-(3′-fluoro-[1,1′-biphenyl]-3-yl)-isoxazolidin-2-yl)-pyrimidin-4-yl)-amino)-4-methoxy-2-(4-methylpiper-azin-1-yl)phenyl)-acrylamide]",500 to 5000
19,"C=CC(=O)Nc1cc(Nc2cc(N3OCC[C@@H]3c3cc(F)cc(-c4cccs4)c3)ncn2)c(OC)cc1N(C)CCN(C)C [Example 243, (R)-N-(2-((2-(dimethylamino)-ethyl)(methyl)-amino)-5-((6-(3-(3-fluoro-5-(thio-phen-2-yl)phenyl)-isoxazolidin-2-yl)-pyrimidin-4-yl)-amino)-4-methoxy-phenyl)acrylamide]",< 50
20,"C=CC(=O)Nc1cc(Nc2cc(N3OCC[C@@H]3c3ccc(F)c(OCc4cccc(F)c4)c3)ncn2)c(OC)cc1N1CCN(C)CC1 [Example 244, (R)-N-(5-((6-(3-(4-fluoro-3-((3-fluorobenzyl)oxy)-phenyl)isoxazol-idin-2-yl)pyrim-idin-4-yl)amino)-4-methoxy-2-(4-methylpiperazin-1-yl)phenyl)-acrylamide]",< 50
21,"C=CC(=O)Nc1cc(Nc2cc(N3OCC[C@@H]3c3cccc(C(=O)NC(C)C)c3)ncn2)c(OC)cc1N1CCN(C)CC1 [Example 246, (R)-3-(2-(6-((5-acrylamido-2-methoxy-4-(4-methylpiperazin-1-yl)phenyl)-amino)pyrimidin-4-yl)isoxazolidin-3-yl)-N-isopropyl-benzamide]",< 50
22,"C=CC(=O)Nc1cc(Nc2cc(N3OCC[C@@H]3c3cccc(C(=O)NC(C)C)c3)ncn2)c(OC)cc1N(C)CCN(C)C [Example 247, (R)-3-(2-(6-((5-acrylamido-4-((2-(dimethylamino)-ethyl)(methyl)-amino)-2-methoxy-phenyl)amino)pyr-imidin-4-yl)isox-azolidin-3-yl)-N-isopropylbenzamide]",< 50
23,"C=CC(=O)Nc1cc(Nc2cc(N3OCCC3c3cccc(-c4cc(F)cc(F)c4)c3)ncn2)c(OC)cc1N1CCC(N2CCN(C3CC3)CC2)CC1 (stereo not drawn) [Example 249, N-(2-(4-(4-cyclo-propylpiperazin-1-yl)piperidin-1-yl)-5-((6-(3-(3′,5′-difluoro-[1,1′-biphenyl]-3-yl)-isoxazolidin-2-yl)-pyrimidin-4-yl)-amino)-4-methoxy-phenyl)acrylamide]",50 to 500
24,"C=CC(=O)Nc1cc(Nc2cc(N3OCCC3c3cccc(-c4cccc(C#N)c4)c3)ncn2)c(OC)cc1N1CCC(N2CCN(C3CC3)CC2)CC1 (stereo not drawn) [Example 250, N-(5-((6-(3-(3′-cyano-[1,1′-biphen-yl]-3-yl)isoxazol-idin-2-yl)pyrim-idin-4-yl)amino)-2-(4-(4-cycloprop-ylpiperazin-1-yl)-piperidin-1-yl)-4-methoxyphenyl)-acrylamide]",< 50
